The values that follow come from patent publication US10604509B2, “Nrf2 regulators” (GlaxoSmithKline Intellectual Property Development Limited, priority 2015, dated 2020).

The experiment deals with NQO1 specific enzyme activity in BEAS-2B cells. Description: BEAS-2B NQO1 MTT assay. The format is cell-based. As to conditions: BEAS-2B cells, 48 hours with compound, MTT readout, read-out: EC50 of NQO1 specific activity induction. In short, it runs like this: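 BEAS-2B cells treated with compound 48 h at 37° C, 5% CO2, then lysed; NQO1 activity in lysate measured kinetically by MTT cocktail at Absorbance 570 nm over 30 min. EC50 for induction from Delta OD/min versus log concentration, 3-parameter fit; Cell Titer Glo run on lysate aliquot.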
In general terms: Formazan colour is commonly taken as a measure of viable cells.

Counter-ions that a name gives are not always drawn. Like-named read-outs stand apart in the source and are kept apart here.

As to `CCn1nnc2c(C)c([C@H](c3ccc(C)c(CN4Cc5cnccc5OC(C)(C)C4)c3)[C@@H](C)C(=O)O)cc(Cl)c21` [Example 209, (2R,3S)-3-(7-Chloro-1-ethyl-4-methyl-1H-benzo[d][1,2,3]triazol-5-yl)-3-(3-((2,2-dimethyl-2,3-dihydropyrido[3,4-f][1,4]oxazepin-4(5H)-yl)methyl)-4-methylphenyl)-2-methylpropanoic Acid], the EC50 (Homo sapiens, BEAS-2B, 48 h) is 1 to 10 nM.

Consider `CC[C@@H]1CN(Cc2cc([C@H](c3ccc4c(nnn4C)c3C)[C@@H](C)C(=O)O)ccc2C)Cc2ccccc2O1` [Example 40, (2R,3R)-3-(1,4-Dimethyl-1H-benzo[d][1,2,3]triazol-5-yl)-3-(3-(((R)-2-ethyl-2,3-dihydrobenzo[f][1,4]oxazepin-4(5H)-yl)methyl)-4-methylphenyl)-2-methylpropanoic Acid], for which the EC50 (Homo sapiens, BEAS-2B, 48 h) fell in the range of 10 to 100 nM.

Regarding `Cc1ccc([C@@H](c2ccc3c(nnn3C)c2C)C(C)(C)C(=O)O)cc1CN1Cc2ncccc2OC(C)(C)C1` [Example 30, formic acid salt], the EC50 (Homo sapiens, BEAS-2B, 48 h) lay within 1 to 10 nM.

Regarding `CC[C@@H]1CN(Cc2cc([C@H](CC(=O)O)c3ccc4c(nnn4CC)c3Cl)ccc2C)Cc2ccccc2O1` [Example 56, (S)-3-(4-Chloro-1-ethyl-1H-benzo[d][1,2,3]triazol-5-yl)-3-(3-(((R)-2-ethyl-2,3-dihydrobenzo[f][1,4]oxazepin-4(5H)-yl)methyl)-4-methylphenyl)propanoic acid], the EC50 (Homo sapiens, BEAS-2B, 48 h) is 10 to 100 nM.

With `CC[C@@H]1CN(Cc2cc(C(CC(=O)O)c3ncc4c(nnn4C)c3C)ccc2C)Cc2ccccc2O1` (stereo partly drawn) [Example 48, 3-(3,7-Dimethyl-3H-[1,2,3]triazolo[4,5-c]pyridin-6-yl)-3-(3-(((R)-2-ethyl-2,3-dihydrobenzo[f][1,4]oxazepin-4(5H)-yl)methyl)-4-methylphenyl)propanoic Acid, Trifluoroacetic Acid Salt], the EC50 (Homo sapiens, BEAS-2B, 48 h) lay within 100 to 1000 nM.

As to `CC[C@@H]1CN(Cc2cc(C(CCc3cn(CC)nn3)C(C)C(=O)O)ccc2C)Cc2ccccc2O1` (single isomer, unassigned; isomer 3) [Example 120], the EC50 lay within 1 to 10 nM.

For the compound `CCC1(C)CN(Cc2cc([C@@H](c3ccc4c(nnn4C)c3C)C(C)(C)C(=O)O)ccc2C)Cc2ccccc2O1` (stereo partly drawn) [Example 240, (3S)-3-(1,4-Dimethyl-1H-benzo[d][1,2,3]triazol-5-yl)-3-(3-((2-ethyl-2-methyl-2,3-dihydrobenzo[f][1,4]oxazepin-4(5H)-yl)methyl)-4-methylphenyl)-2,2-dimethylpropanoic Acid], for the setting “Homo sapiens, BEAS-2B, 48 h”, the EC50 lay in the range of 1 to 10 nM.

`CCC1CN(Cc2cc(C(CC(=O)O)c3ccc4c(nnn4CC)c3C)ccc2C)Cc2ccccc2O1` (stereo not shown) [Example 69, 3-(3-((2-Ethyl-2,3-dihydrobenzo[f][1,4]oxazepin-4(5H)-yl)methyl)-4-methylphenyl)-3-(1-ethyl-4-methyl-1H-benzo[d][1,2,3]triazol-5-yl)propanoic Acid, Formic Acid Salt]: the EC50 (Homo sapiens, BEAS-2B, 48 h) was in the range of 10 to 100 nM.

`Cc1ccc([C@@H](c2ccc3c(nnn3C)c2C)[C@@H](C)C(=O)O)cc1CN1Cc2cnccc2OC(C)(C)C1` [Example 203, (2R,3S)-3-(1,4-Dimethyl-1H-benzo[d][1,2,3]triazol-5-yl)-3-(3-((2,2-dimethyl-2,3-dihydropyrido[3,4-f][1,4]oxazepin-4(5H)-yl)methyl)-4-methylphenyl)-2-methylpropanoic Acid, 0.2 Formic Acid Salt]: the EC50 (Homo sapiens, BEAS-2B, 48 h) lay within 10 to 100 nM.

On to `CCC1CN(Cc2cc([C@@H](CC(=O)O)c3ccc4c(nnn4C)c3C)ccc2C)Cc2ccccc2O1` (stereo partly drawn) [Example 6, (3R)-3-(1,4-Dimethyl-1H-benzo[d][1,2,3]triazol-5-yl)-3-(3-((2-ethyl-2,3-dihydrobenzo[f][1,4]oxazepin-4(5H)-yl)methyl)-4-methylphenyl)propanoic Acid, Trifluoroacetic Acid Salt], for which the EC50 (Homo sapiens, BEAS-2B, 48 h) is 100 to 1000 nM.

As for `Cc1ccc([C@@H](CC(=O)O)c2ccc3c(nnn3C)c2C)cc1CN1Cc2cccc(F)c2OC(C)(C)C1` [Example 177, (R)-3-(1,4-Dimethyl-1H-benzo[d][1,2,3]triazol-5-yl)-3-(3-((9-fluoro-2,2-dimethyl-2,3-dihydrobenzo[f][1,4]oxazepin-4(5H)-yl)methyl)-4-methylphenyl)propanoic acid], the EC50 (Homo sapiens, BEAS-2B, 48 h) was in the range of 10 to 100 nM.

For the compound `CCn1cc(CCC(c2ccc(C)c(CN3Cc4cccnc4OC(C)(C)C3)c2)C(C)(C)C(=O)O)nn1` (stereo not shown) [Example 223, 3-(3-((2,2-Dimethyl-2,3-dihydropyrido[3,2-f][1,4]oxazepin-4(5H)-yl)methyl)-4-methylphenyl)-5-(1-ethyl-1H-1,2,3-triazol-4-yl)-2,2-dimethylpentanoic Acid], the EC50 (Homo sapiens, BEAS-2B, 48 h) was in the range of 1 to 10 nM.

Consider `Cc1ccc(C(c2ccc3c(nnn3C)c2C)C(C)(C)C(=O)O)cc1Cn1ccnc1CN1CCCCCC1` (stereo not shown) [Example 151, 3-(3-((2-(Azepan-1-ylmethyl)-1H-imidazol-1-yl)methyl)-4-methylphenyl)-3-(1,4-dimethyl-1H-benzo-[d][1,2,3]triazol-5-yl)-2,2-domethylpropanoic acid, 0.3 formic acid salt], for which the EC50 (formic acid salt) lay within 1 to 10 nM.

Consider `CCC1CN(Cc2cc(C(c3ccc4c(nnn4C)c3C)C(C)(C)C(=O)O)ccc2C)CCC(C2CC2)O1` (stereo not shown) [Example 246, 3-(3-((7-Cyclopropyl-2-ethyl-1,4-oxazepan-4-yl)methyl)-4-methylphenyl)-3-(1,4-dimethyl-1H-benzo[d][1,2,3]triazol-5-yl)-2,2-dimethylpropanoic Acid], for which, where the note is “Homo sapiens, BEAS-2B, 48 h”, the EC50 was in the range of 100 to 1000 nM.

Regarding `Cc1ccc(C(c2ccc3c(nnn3C)c2C)C(C)(C)C(=O)O)cc1CN1Cc2ccccc2OC(C)(C)C1` (stereo not shown) [Example 8, 3-(1,4-Dimethyl-1H-benzo[d][1,2,3]triazol-5-yl)-3-(3-((2,2-dimethyl-2,3-dihydrobenzo[f][1,4]oxazepin-4(5H)-yl)methyl)-4-methylphenyl)-2,2-dimethylpropanoic Acid, Formic Acid Salt], the EC50 (Homo sapiens, BEAS-2B, 48 h) lay in the range of 1 to 10 nM.

In the case of `CCn1nnc2c(C)c([C@@H](c3ccc(C)c(Cn4ccnc4CN4CCCCC4)c3)[C@H](C)C(=O)O)ccc21` [Example 201, (2S,3R)-3-(1-Ethyl-4-methyl-1H-benzo[d][1,2,3]triazol-5-yl)-2-methyl-3-(4-methyl-3-((2-(piperidin-1-ylmethyl)-1H-imidazol-1-yl)methyl)phenyl)propanoic Acid], the EC50 (Homo sapiens, BEAS-2B, 48 h) was in the range of 100 to 1000 nM.

For the compound `COc1ccc(C2COCCN2Cc2cc(C(CC(=O)O)c3ccc4c(nnn4C)c3C)ccc2C)cc1` (stereo not shown) [Example 21, 3-(1,4-dimethyl-1H-benzo[d][1,2,3]triazol-5-yl)-3-(3-((3-(4-methoxyphenyl)morpholino)methyl)-4-methylphenyl)propanoic acid, formic acid salt], the EC50 (Homo sapiens, BEAS-2B, 48 h) is 1000 to 10000 nM.

For `Cc1ccc([C@H](CC(=O)O)c2ccc3c(nnn3C)c2C)cc1CN1CCCC(Cn2cccn2)C1` (stereo partly drawn) [Example 215, (3S)-3-(3-((3-((1H-Pyrazol-1-yl)methyl)piperidin-1-yl)methyl)-4-methylphenyl)-3-(1,4-dimethyl-1H-benzo[d][1,2,3]triazol-5-yl)propanoic Acid], the 50% effective concentration (EC50) (Homo sapiens, BEAS-2B, 48 h) was in the range of 1000 to 10000 nM.

With `Cc1ccc([C@H](CC(=O)O)c2ccc3c(nnn3C)c2C)cc1CN1Cc2ccc(F)cc2OC(C)(C)C1` [Example 63, (S)-3-(1,4-Dimethyl-1H-benzo[d][1,2,3]triazol-5-yl)-3-(3-((8-fluoro-2,2-dimethyl-2,3-dihydrobenzo[f][1,4]oxazepin-4(5H)-yl)methyl)-4-methylphenyl)propanoic acid], the EC50 (Homo sapiens, BEAS-2B, 48 h) was 10 to 100 nM.

What is called EC50 is the concentration needed to bring the measured effect to its halfway point.
